We go through 15 molecules from paper PMC2939770 (Bioorganic & Medicinal Chemistry, 2010).

The target in experiment [1] is T1, T. brucei 6PGDH (Trypanosoma brucei brucei, UniProt P31072).
T1 sequence (P31072 1-479): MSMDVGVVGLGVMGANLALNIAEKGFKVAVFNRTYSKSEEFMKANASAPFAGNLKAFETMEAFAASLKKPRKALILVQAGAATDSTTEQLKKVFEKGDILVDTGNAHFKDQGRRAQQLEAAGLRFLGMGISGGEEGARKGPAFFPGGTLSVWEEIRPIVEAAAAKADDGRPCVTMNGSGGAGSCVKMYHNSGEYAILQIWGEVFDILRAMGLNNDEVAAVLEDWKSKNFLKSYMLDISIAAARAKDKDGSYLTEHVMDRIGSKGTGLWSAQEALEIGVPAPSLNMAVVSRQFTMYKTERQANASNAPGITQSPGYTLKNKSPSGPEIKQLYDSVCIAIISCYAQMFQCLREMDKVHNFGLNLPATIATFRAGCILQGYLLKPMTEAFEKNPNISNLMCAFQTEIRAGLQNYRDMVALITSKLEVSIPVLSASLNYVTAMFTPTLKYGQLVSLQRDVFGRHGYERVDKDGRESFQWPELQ
As to conditions: for Hill slope: slope of the IC50 curve, recombinant Tb6PGDH; for Ligand efficiency: −RTLn(IC50)/HAC, HAC: heavy atom count; for confirmation of enzyme inhibition on re-test: second round, repurchased hits of the first screening.
Procedure: (§1) Inhibition studies involved a reaction in 50 mM triethanolamine pH 7.0, 2 mM MgCl2. NADPH and 6PG were each at 20 μM. Total reaction volume was 1 ml. The reaction was followed in a Perkin Elmer UV–vis spectrophotometer. Compounds were dissolved in DMSO and initially added at 200 μM, then 50 μM.

In experiment [2] the target is T1, T. brucei 6PGDH. Briefly: biochemical.
Procedure: as §1
The subject of experiment [3] is 6PGDH. More on the design: method as in PMID 9307279. The conditions noted are these: might bind to the cofactor binding site; cited from earlier work.

The structures appear in SMILES notation.

For `Cc1oc([N+](=O)[O-])cc1C(=O)O` [Compound 3], in experiment [1], the Hill slope is 1.5 and the Ligand efficiency is reported as 0.52 (kcal/mol)/HAC. This molecule also had a concentration for half-maximal inhibition (IC50) in experiment [2] of 28 ± 6 µM.

In the case of `O=C1C=C(S(=O)(=O)[O-])c2ccccc2C1=O.[K+]` [Compound 16], the Hill slope in experiment [1] came out at 4.8.

On to `N#C/C(=C\c1ccc([N+](=O)[O-])o1)C(=O)O` [Compound 17], for which, in experiment [1], the Hill slope was 2.0 and the Ligand efficiency is listed as 0.48 (kcal/mol)/HAC. In experiment [2], this molecule yielded an IC50 of 5.8 ± 0.6 µM.

`NC(=O)N1CCCC1C(=O)O` (centres unmarked) [Compound 4]: the “confirmation of enzyme inhibition on re-test” value in experiment [1] is reported as “did not confirm the previous reported activity”.

With `O=C(O)c1cc(Cl)c[nH]1` [Compound 2], in experiment [1], the Hill slope came to 1.8 and the Ligand efficiency was 0.66 (kcal/mol)/HAC. In experiment [2], this molecule had an IC50 of 43 ± 9 µM.

On to `O=C(O)c1cc2sccc2[nH]1` [Compound 13], for which, in experiment [1], the Hill slope came out at 1.1 and the Ligand efficiency was 0.54 (kcal/mol)/HAC. This molecule came in with an IC50 in experiment [2] of 42 ± 7 µM.

As to `Cc1c(C(=O)O)[nH]c(-c2[nH]c(C(=O)O)c(C)c2C)c1C` [Compound 14], in experiment [1], the Hill slope worked out at 1.4 and the Ligand efficiency is listed as 0.27 (kcal/mol)/HAC. In experiment [2], this molecule had an IC50 of 114 ± 27 µM.

On to `NC(CS(=O)(=O)O)C(=O)O` (centres unmarked) [Compound 10], for which the “confirmation of enzyme inhibition on re-test” value in experiment [1] is listed as “did not confirm the previous reported activity”.

As for `NC(C(=O)O)c1ccsc1` (centres unmarked) [Compound 5], the “confirmation of enzyme inhibition on re-test” value in experiment [1] is recorded as “did not confirm the previous reported activity”.

For `NC(=O)c1ccc(N)nc1` [6-aminonicotinamide], in experiment [3], the “inhibition of 6PGDH” value is listed as “potential inhibitor of 6PGDH”.

As for `O=C(O)c1cc(Cl)c(Cl)[nH]1` [Compound 18], in experiment [1], the Hill slope is on record as 2.1 and the Ligand efficiency is reported as 0.60 (kcal/mol)/HAC. Also, the concentration for half-maximal inhibition (IC50) in experiment [2] worked out at 42 ± 3.7 µM.

In the case of `Cc1c(C(=O)O)oc2c1C(=O)CSC2` [Compound 12], in experiment [1], the Hill slope was found to be 1.7 and the Ligand efficiency was 0.42 (kcal/mol)/HAC. The molecule also registered an IC50 in experiment [2] of 51 ± 3 µM.

With `O=C1CC(S(=O)(=O)[O-])c2ccccc2/C1=N/O.[Na+]` (centres unmarked) [Compound 11], in experiment [1], the Hill slope is reported as 1.4 and the Ligand efficiency is listed as 0.33 (kcal/mol)/HAC. The half-maximal inhibitory concentration (IC50) in experiment [2] was 73 ± 9 µM.

Consider `O=C(O)C(=Cc1ccc([N+](=O)[O-])o1)C(=O)O` [Compound 15], for which, in experiment [1], the Hill slope was found to be 5.2 and the Ligand efficiency is listed as 0.36 (kcal/mol)/HAC. The molecule also showed an IC50 in experiment [2] of 56 ± 6 µM.

Regarding `CCOC(=O)c1[nH]c(C(=O)O)c(C)c1C` [Compound 1], in experiment [1], the Hill slope was determined as 1.6 and the Ligand efficiency is listed as 0.40 (kcal/mol)/HAC. Moreover, half-maximal inhibition in experiment [2] (IC50) required 45 ± 11 µM.
